One may read the IC50 as the concentration needed to halve the response being measured.

Assay [1] concerns the target T1, Orexin receptor type 2 (Homo sapiens, UniProt O43614).
T1 sequence (O43614 whole entry): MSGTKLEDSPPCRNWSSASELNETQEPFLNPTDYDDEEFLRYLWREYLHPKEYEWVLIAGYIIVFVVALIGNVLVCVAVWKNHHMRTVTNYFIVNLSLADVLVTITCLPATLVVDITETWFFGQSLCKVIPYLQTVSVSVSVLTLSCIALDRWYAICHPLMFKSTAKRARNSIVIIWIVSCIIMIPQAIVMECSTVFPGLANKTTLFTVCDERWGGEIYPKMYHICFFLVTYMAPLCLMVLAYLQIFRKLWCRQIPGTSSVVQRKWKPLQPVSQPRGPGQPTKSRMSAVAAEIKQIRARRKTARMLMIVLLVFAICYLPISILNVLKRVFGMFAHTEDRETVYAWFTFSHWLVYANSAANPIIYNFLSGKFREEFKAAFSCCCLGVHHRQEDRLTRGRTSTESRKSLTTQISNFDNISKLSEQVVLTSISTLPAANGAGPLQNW
Put plainly: Antagonist activity at human OX2R expressed in CHO cells assessed as inhibition of orexin A-induced intracellular Ca2+ release by FLIPR assay. Format: functional, cell-based.

Assay [2] concerns the target T2, Orexin/Hypocretin receptor type 1 (Homo sapiens, UniProt O43613).
T2 sequence (O43613 whole entry): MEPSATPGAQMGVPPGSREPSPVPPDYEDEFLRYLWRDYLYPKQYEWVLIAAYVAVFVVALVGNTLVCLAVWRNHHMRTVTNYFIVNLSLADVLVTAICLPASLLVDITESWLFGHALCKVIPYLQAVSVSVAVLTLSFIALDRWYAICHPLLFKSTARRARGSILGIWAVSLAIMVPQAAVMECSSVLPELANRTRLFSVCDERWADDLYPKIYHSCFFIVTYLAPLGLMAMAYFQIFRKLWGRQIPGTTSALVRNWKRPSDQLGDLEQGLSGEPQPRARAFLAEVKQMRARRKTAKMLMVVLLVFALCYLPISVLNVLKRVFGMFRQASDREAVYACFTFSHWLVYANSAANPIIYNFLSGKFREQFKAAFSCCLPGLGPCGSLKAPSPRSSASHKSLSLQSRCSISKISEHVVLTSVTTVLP
Put plainly: Antagonist activity at human OX1R expressed in CHO cells assessed as inhibition of orexin A-induced intracellular Ca2+ release by FLIPR assay. Format: functional, cell-based.

The structures appear in SMILES notation.

As to `CC[C@](C)(O)c1nc([C@@H]2CC[C@@H](C)N(C(=O)c3cscc3-n3nccn3)C2)oc1C`, the concentration for half-maximal inhibition (IC50) was 18 nM in assay [1] and 9.77 µM in assay [2].

With `C[C@@H]1CC[C@@H](c2nc(CN(C)C)c(-c3ccccc3)o2)CN1C(=O)c1ccccc1-n1nccn1`, in assay [1], the half-inhibitory concentration (IC50) amounted to 983 nM.

For `CCOc1ccccc1C(=O)N1C[C@H](c2nc(C(C)(C)O)c(C)o2)CC[C@H]1C`, the IC50 in assay [1] is 12 nM.
